Reference: EP3851097A1, “CONTROLLED RELEASE FORMULATIONS” (Universidad De Zaragoza, priority 2020, dated 2021)

Test: Ocular tissue pharmacokinetics of dexamethasone after intravitreal injection (HPLC)
Conditions: vitreous humor
Experimental: Previously, a paracentesis in the anterior chamber was performed using a 30-gauge hypodermic needle with removal of aqueous humor, to avoid an intraocular pressure elevation.
Thirty female NZ albino rabbits were used for this study: fifteen for SCS group (50 µL-DEX/LAP suspension) and other fifteen for IVT group (100 µL).
After administration of DEX/LAP suspension (10 mg/mL, 1:10 w/w), the rabbits were sacrificed for sampling eye tissues and subsequent ocular PK studies. Three animals were used for each sampling time point at 1, 7, 28, 84 and 168 days. A rapid intravenous injection of sodium pentobarbital (30 mg/kg) through the ear vein was performed and immediately after euthanasia, ocular tissues were collected. Following eye enucleation, the globes were snap-frozen (-40°C) and specimens were obtained by eye dissection (vitreous, lens, sclera and chorio-retina compound). DEX concentrations in ocular tissues were determined using a simple and easily accessible method by HPLC-Mss, according to the methodology described by our group in a previous study.
The determination of DEX was carried out by HPLC-Mss method in a Waters 2695 system equipped with a Phenomenex Kinetex C18 column (75 mm × 4.6 mm × 2.6 µm) coupled to a Waters 2995 PDA detector. The mobile phase was acetonitrile/water (35:65 v/v) pumped at a flow rate of 0.2 mL/min at 35°C. Detection at 250 nm was used. The amount of DEX was calculated by a seven point calibration curve against 6-α-methylprednisolone as internal standard. Aliquots of the extraction medium (200 µL) were mixed with acetonitrile (2 mL) and 100 µL of a standard solution (20 ppm in acetonitrile). The solution was then vortexed for 1 min and sonicated for 5 min to ensure the complete mixing, and finally centrifuged at 3000 rpm for 5 min. The supernatant was collected and evaporated under vacuum, and then dissolved in 200 µL of acetonitrile, filtered through a 0.22 µm PTFE syringe filter and analyzed.
PK data were analyzed for the best fit and were consequently modelled according to compartmental models using Microsoft Excel's "PKSolver Add-in" (Albuquerque, NM, USA), in which equations describing concentration as a function of time are used. The following PK parameters were obtained: peak concentration (Cmax), time to peak concentration (Tmax), elimination half-life (T½).
To describe the time course-concentration after administration the following equation was used: Ctissue = C0 ∗e^(−Ke t) [formula] where C is the tissue concentration, C0 is the concentration at time to, Ke is the elimination rate constant which is derived from the elimination half-life of the drug (Ke= 0.693/T1/2).

[1] = 100 µL intravitreal administration

## C[C@@H]1C[C@H]2[C@@H]3CCC4=CC(=O)C=C[C@]4(C)[C@@]3(F)[C@@H](O)C[C@]2(C)[C@@]1(O)C(=O)CO [DEX solution, Dexamethasone]
[1]
  AUC0-∞: 317.17 ng·days/g
  C0: 1737.71 ng/g
  Cl: 315.29 g/day
  Ke: 5.48 day⁻¹
Intravitreal injection
  clearance (CL): 315.29 g/day
